The data set relates to U118MG cells. In words: Protection against cell death induced by glutamate in U118MG cell culture. It counts as cell-based, human. The procedure: Cell cultures of various human glial type cell lines (T98G, U87MG, A172, U118MG), as well as human neuronal type cell lines SH-SY 5Y and Be(2)-C were used to test the new compounds. In addition, the rat glioma cell line C6 was used. PC12 cells originating from rats were used as another cell line displaying neuronal characteristics. The applicants also have produced, by genetic manipulation, a modified rat C6 glial cell strain and a modified human U118MG glial type cell strain, both under-expressing the TSPO, which allows to study TSPO specific effects, including of the compounds of the invention, which can be done according to methods described previously (Weisinger et al. Biochemistry. 2004; 43:12315-21; Levin et al. 2005; Zeno et al., 2009).
The protective capabilities of the compounds of the invention and involvement of the TSPO were tested in cell culture, using cell lines of glial and neuronal type, cultured and testing according to standard methods (Kugler et al. 2008; Zeno et al. 2009; Dadon-Nachum et al. Stem Cell Rev. 2011; 7:664-71). Furthermore, primary cell cultures are also used (Banker, G. et al. Culturing Nerve Cells, 2nd Edition, The MIT Press (1998). Treatments included: (1) exposure to glutamate (35 mM), Abeta(1-42), NH4Cl, CoCl2, and nitric oxide (NO) donors, in order to mimic particular aspects of neurodegeneration; (2) treatment with the novel compounds and with traditional TSPO ligands as comparative treatment; and (3) TSPO knockdown by genetic manipulation.
Techniques and parameters assayed are summarized here: Total protein levels (Bradford. Anal Biochem. 1976; 72:248-54); TSPO ligand binding assays (Kugler et al. 2008; Levin et al. 2005; Danovich et al. Eur Neuropsychopharmacol. 2008; 18:24-33) cell death, including apoptosis and necrosis and related molecular biological processes (Soustiel et al. Neuropathol Appl Neurobiol. 2008; 34:412-23; Soustiel et al. Exp Neurol. 2008; 214:201-8; Zeno et al. 2009); mitochondrial transmembrane potential collapse (Chelli et al. Biochem Pharmacol. 2004; 68:125-34; Kugler et al. 2008; Zeno et al., 2009; Shargorodsky et al. Apoptosis. 2012; 17:647-65), reactive oxygen species (ROS) generation as a measure of oxidative stress (Veenman et al. 2008; Zeno et al. 2009); TSPO knockdown (Levin et al. 2005; Zeno et al. 2009); expression levels of mitochondrial TSPO and associated proteins (Veenman et al. 2002; Levin et al. 2005; Veenman et al. 2008); gene expression with RT-PCR and microarray analysis (Bode et al. 2012; Veenman et al. 2012). Parameters of inflammation, immune response, migration, and the cell cycle are also tested. All these approaches can also be applied for quality control of the compounds.
The compounds of the invention protect against cell death induced by glutamate in cell culture of U118MG cells of astrocytic origin (FIGS. 1, 2, 3 and 8) or SH SY 6Y cells of neuronal origin (FIG. 4). […] In the control group, 35 mM of glutamate killed ˜60% of the cells.
The experimental setup is explained using FIG. 8B as an example: • 1. Control: Cell death levels are taken as 0% • 2. Glu: Cell death levels induced by glutamate are over 50% • 3. […] Glu+Cpd 5: When Cpd 5 is given as a treatment to counteract cell death induced by glutamate, increasing concentrations of Cpd 5 reduce cell death levels from over 50% to less than 5%.

Entries after “also recorded” stand apart in the source; their conditions may differ.

Regarding `CCN(C)C(=O)Oc1nc(-c2ccccc2)nc2ccccc12` [Compound 1, 2-phenylquinazolin-4-yl ethyl(methyl)carbamate], the “protection against cell death induced by glutamate” value (U118MG cells, 35 mM glutamate, compound 1-100 μM) is “significantly protects; also recorded: protect better and more consistently; also recorded: significantly reduces glutamate-induced cell death levels”. Where the note is “cell culture, grade in words”, the “Protection against glutamate-induced cell death” value is “Excellent”. The “lethal effect of compound by itself” value (compound alone, no glutamate) is “only very little lethal effect by itself”.

The record behind these values is US10035780B2, “Quinazoline scaffold based compounds, pharmaceutical compositions and methods of use thereof” (TECHNION RESEARCH & DEVELOPMENT FOUNDATION LTD., priority 2014, dated 2018).
